# PMC7799360, “Reprogramming immunosuppressive myeloid cells facilitates immunotherapy for colorectal cancer” (EMBO Molecular Medicine, 2020)
# Where two headings read alike, the source gives them in different places.
# Columns and labels:
# BB1 = molecular target: T1, BB1 (Homo sapiens, UniProt P28336); test: GPCR calcium flux assay; format: cell-based
# T1 construct: Pharmaron (Beijing, China), contract laboratory
# DRD2 = DRD2 (Homo sapiens, UniProt P14416); test: LANCE Ultra cAMP assay
# [1] = In vitro metabolic stability using liver microsome; format: in vitro ADME; conditions: mouse liver microsome
# HTR1B = HTR1B (Homo sapiens, UniProt P28222); test: LANCE Ultra cAMP assay
# other 25 GPCRs = test: GPCR selectivity (LANCE Ultra cAMP assay and calcium flux assay); conditions: read-out: IC50 on other 25 GPCRs; LANCE Ultra cAMP and calcium flux assays
# [2] = In vitro metabolic stability using liver microsome; format: in vitro ADME; conditions: liver microsomes
# mouse bone marrow cells = test: Macrophage polarization assay (M-CSF/IL-4/PGE2, M2 macrophages); format: cell-based; conditions: M-CSF/IL-4/PGE2, 6 days, concentration-dependent
# Procedure: Single‐cell suspensions of mouse BM cells were prepared by filtering femurs and tibias of 6‐week‐old female BALB/c mice through 40‐μm cell strainers (Falcon). These suspensions were treated with red blood cell lysis buffer and replated in conditioned medium. Monocyte differentiation, MDSC induction, and macrophage polarization were analyzed by FACS analysis (BD Biosciences) with FlowJo software.
# For macrophage polarization assay (De Henau et al., 2016; Tan et al., 2018), mouse BM cells were cultured in RPMI1640 medium supplemented with recombinant mouse M‐CSF (20 ng/ml, Peprotech) to generate BM‐derived macrophages (BMDM). For FACS analysis of BM‐derived M2‐like macrophage, IL‐4 (20 ng/ml, Peprotech) and PGE2 (10 nM) were added on day 0. TP‐16 was added simultaneously with PGE2 on day 0 or sequentially on day 3 for differentiation over a period of 6 days. For qPCR analysis of macrophages (day 6), BMDMs were polarized with IFNγ (50 ng/ml, Peprotech) or IL‐4 (20 ng/ml, Peprotech) ± PGE2 (10 nM) ± TP‐16 for 24 h at 37°C on day 6. The culture medium was refreshed every 3 days.
# ADRB2 = molecular target: T2, ADRB2 (Homo sapiens, UniProt P07550); test: GPCR calcium flux assay; format: cell-based
# T2 construct: Pharmaron (Beijing, China) performed the assay
# AVPR1A = molecular target: T3, AVPR1A (Homo sapiens, UniProt P37288); test: GPCR calcium flux assay; format: cell-based
# T3 construct: Pharmaron (Beijing, China), contract laboratory
# ADORA2A = molecular target: T4, ADORA2A (Homo sapiens, UniProt P29274); test: LANCE Ultra cAMP assay; format: cell-based
# T4 construct: Pharmaron (Beijing, China) performed the assay
# HT29 = test: Cell viability (MTS); format: cell-based, human; conditions: HT29, 100 µM
# From the text: (§1) The murine colon cancer (CT26), murine breast cancer (4T1), and human colon cancer (HCT116, HCT8, HT29, and DLD1) cell lines were obtained from American Type Culture Collection (ATCC). The murine cell lines of melanoma (B16F10), pancreatic cancer (Pan02), and colon cancer (MC38), Chinese hamster ovary (CHO) cell line, and human embryonic kidney cell lines (HEK293 and HEK293T) were purchased from the National Infrastructure of Cell Line Resource (Shanghai, China). Primary human endothelial cells (HUVECs) were kindly provided by Dr. Xinli Wang (Baylor College of Medicine, Houston, TX, USA) and cultured in endothelial cell medium (ScienCell, San Diego, CA, USA) according to the manufacturer’s instructions. The CHO‐Gα16 cell line was established in our previous study and maintained in DMEM/F12 medium containing puromycin (4 μg/ml) (Wu et al., 2018). Cell lines were maintained in vendor recommended growth medium supplemented with 10% FBS (Gibco, Waltham, MA, USA) and 1% penicillin/streptomycin solution (Gibco) at 37°C ins a humidified atmosphere (5% CO2). All cell lines were authenticated using short tandem repeat analysis. All cell lines were confirmed to be mycoplasma‐free by polymerase chain reaction (PCR) analysis. Cell viability was determined using CellTiter 96 ® Aqueous One Solution (Promega, Madison, WI).
# (§2) Appendix Figure S1. […]. The cytotoxicity curves
# (§3) . Mouse cancer cells: CT26
# (§4) . Human colon cancer cells: HCT116 (E),
# (§5) HCT8 (F), HT29 (G) and DLD1 (H). Human normal cell line: HUVECs (I). Cell
# (§6) viability was measured by MTS. Data are presented as mean ± SEM derived
# (§7) from three independent experiments (n=3).
# (§8) (1 picture or pasted object on this page, not shown here)
# HCT116 = test: Cell viability (MTS); format: cell-based, human; conditions: HCT116, 100 µM
# From the text: as §1, §2, §3, §4, §5, §6, §7, §8
# HUVEC = test: Cell viability (MTS); format: cell-based, human; conditions: 100 µM
# From the text: as §1, §2, §3, §4, §5, §6, §7, §8
# HCT8 = test: Cell viability (MTS); format: cell-based, human; conditions: HCT8, 100 µM
# From the text: as §1, §2, §3, §4, §5, §6, §7, §8
# DLD1 = test: Cell viability (MTS); format: cell-based, human; conditions: DLD1, 100 µM
# From the text: as §1, §2, §3, §4, §5, §6, §7, §8
# DRD1 = molecular target: T5, DRD1 (Homo sapiens, UniProt P21728); test: GPCR calcium flux assay; format: cell-based
# T5 construct: Pharmaron (Beijing, China), contract laboratory
# ADRA1D = molecular target: T6, ADRA1D (Homo sapiens, UniProt P25100); test: GPCR calcium flux assay; format: cell-based
# T6 construct: Pharmaron (Beijing, China) performed the assay
# AT1 = molecular target: T7, AT1 (Homo sapiens, UniProt P30556); test: GPCR calcium flux assay; format: cell-based
# T7 construct: Pharmaron (Beijing, China), contract laboratory
# CHRM3 = molecular target: T8, CHRM3 (Homo sapiens, UniProt P20309); test: GPCR calcium flux assay; format: cell-based
# T8 construct: Pharmaron (Beijing, China), contract laboratory
# CT26-Luc tumors = test: CT26-Luc orthotopic colorectal cancer mouse model; format: in vivo
# T1 sequence (P28336 whole entry): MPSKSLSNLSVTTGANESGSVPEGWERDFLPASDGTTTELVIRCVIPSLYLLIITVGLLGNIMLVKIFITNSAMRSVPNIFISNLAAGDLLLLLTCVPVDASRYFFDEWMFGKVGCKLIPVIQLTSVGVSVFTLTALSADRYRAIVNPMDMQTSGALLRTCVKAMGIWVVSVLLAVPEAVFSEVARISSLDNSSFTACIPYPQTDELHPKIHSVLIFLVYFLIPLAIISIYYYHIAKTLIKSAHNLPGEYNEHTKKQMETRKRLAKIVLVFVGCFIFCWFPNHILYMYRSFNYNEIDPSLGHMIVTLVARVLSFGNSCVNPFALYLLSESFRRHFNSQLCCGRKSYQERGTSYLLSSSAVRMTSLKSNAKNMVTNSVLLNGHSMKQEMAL
# HTR1B, sequence (P28222 whole entry): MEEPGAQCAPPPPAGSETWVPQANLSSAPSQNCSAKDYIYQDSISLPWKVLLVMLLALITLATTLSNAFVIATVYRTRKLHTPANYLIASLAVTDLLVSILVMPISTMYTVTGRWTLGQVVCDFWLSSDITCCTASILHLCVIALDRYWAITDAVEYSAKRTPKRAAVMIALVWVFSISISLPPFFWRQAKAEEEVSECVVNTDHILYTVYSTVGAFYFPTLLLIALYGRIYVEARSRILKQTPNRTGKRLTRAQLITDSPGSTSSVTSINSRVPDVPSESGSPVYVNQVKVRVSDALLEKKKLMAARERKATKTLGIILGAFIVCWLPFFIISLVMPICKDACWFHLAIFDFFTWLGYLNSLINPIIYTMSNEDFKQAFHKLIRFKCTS
# T5 sequence (P21728 whole entry, species assumed): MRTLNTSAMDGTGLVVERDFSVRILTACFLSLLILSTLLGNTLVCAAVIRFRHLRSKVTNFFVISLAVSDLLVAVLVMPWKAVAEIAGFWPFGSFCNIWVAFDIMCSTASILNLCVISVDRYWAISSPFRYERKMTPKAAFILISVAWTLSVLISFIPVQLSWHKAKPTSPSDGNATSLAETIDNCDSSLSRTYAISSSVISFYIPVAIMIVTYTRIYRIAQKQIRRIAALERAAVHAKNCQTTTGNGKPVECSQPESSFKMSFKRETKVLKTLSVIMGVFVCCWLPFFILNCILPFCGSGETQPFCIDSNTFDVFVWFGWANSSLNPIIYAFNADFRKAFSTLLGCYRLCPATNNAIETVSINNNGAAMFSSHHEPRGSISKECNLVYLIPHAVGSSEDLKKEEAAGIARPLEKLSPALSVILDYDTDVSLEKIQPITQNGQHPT
# T2 sequence (P07550 whole entry, species assumed): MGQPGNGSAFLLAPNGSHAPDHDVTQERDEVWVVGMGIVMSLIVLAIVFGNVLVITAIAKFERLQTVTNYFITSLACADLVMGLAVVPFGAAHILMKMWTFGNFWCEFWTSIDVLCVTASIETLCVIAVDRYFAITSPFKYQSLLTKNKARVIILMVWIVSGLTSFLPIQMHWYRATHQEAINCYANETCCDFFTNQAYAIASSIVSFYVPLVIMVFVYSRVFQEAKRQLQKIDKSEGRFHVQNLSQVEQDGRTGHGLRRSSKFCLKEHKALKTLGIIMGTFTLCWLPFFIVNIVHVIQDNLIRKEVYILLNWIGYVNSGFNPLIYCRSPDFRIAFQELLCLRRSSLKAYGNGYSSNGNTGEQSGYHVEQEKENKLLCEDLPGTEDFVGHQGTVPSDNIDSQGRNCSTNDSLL
# T8 sequence (P20309 whole entry, species assumed): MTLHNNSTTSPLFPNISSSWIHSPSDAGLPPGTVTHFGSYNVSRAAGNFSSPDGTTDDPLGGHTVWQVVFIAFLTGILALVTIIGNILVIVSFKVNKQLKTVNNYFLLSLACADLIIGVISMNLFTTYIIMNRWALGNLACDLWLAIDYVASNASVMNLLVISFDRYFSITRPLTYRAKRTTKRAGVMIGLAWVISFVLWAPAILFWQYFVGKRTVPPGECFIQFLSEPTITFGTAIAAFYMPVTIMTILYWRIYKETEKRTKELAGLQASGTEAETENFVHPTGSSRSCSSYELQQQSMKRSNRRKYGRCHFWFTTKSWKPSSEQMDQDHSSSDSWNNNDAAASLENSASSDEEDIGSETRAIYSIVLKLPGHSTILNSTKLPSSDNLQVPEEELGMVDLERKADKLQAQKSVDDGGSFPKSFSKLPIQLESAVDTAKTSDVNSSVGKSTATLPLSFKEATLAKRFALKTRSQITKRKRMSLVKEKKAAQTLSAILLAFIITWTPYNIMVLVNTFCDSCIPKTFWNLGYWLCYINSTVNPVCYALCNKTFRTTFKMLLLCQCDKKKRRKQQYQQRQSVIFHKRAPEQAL
# DRD2, sequence (P14416 whole entry, species assumed): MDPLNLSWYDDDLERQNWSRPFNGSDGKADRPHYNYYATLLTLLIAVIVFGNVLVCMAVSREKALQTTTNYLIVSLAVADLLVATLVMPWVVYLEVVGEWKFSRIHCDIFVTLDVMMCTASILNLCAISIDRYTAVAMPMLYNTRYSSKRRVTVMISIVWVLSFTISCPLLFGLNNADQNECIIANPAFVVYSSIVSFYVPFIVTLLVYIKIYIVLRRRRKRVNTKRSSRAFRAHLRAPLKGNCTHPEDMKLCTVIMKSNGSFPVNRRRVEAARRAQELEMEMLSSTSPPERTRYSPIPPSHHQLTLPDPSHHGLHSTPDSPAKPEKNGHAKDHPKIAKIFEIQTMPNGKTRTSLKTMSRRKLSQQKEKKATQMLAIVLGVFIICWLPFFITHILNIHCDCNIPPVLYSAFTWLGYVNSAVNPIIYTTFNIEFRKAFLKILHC
# T3 sequence (P37288 whole entry, species assumed): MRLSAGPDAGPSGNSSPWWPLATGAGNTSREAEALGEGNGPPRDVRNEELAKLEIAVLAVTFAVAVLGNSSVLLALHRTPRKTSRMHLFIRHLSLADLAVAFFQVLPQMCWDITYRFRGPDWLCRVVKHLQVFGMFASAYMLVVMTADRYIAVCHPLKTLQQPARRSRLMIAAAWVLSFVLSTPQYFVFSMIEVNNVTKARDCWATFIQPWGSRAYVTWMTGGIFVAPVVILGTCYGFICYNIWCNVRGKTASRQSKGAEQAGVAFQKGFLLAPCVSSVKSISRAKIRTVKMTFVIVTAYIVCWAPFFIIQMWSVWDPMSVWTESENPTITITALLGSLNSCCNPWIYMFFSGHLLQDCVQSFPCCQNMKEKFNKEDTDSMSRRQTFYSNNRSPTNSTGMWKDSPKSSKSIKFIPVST
# T7 sequence (P30556 whole entry): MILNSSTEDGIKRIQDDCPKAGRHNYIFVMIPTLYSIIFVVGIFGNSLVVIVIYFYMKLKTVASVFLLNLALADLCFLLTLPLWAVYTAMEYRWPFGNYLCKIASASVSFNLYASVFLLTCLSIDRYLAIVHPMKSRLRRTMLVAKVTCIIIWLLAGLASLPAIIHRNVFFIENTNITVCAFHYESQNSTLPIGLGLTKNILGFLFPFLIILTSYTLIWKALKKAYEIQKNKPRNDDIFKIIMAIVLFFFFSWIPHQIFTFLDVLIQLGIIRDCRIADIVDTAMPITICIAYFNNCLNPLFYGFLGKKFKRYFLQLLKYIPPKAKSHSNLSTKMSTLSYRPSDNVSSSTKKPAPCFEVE
# T4 sequence (P29274 whole entry, species assumed): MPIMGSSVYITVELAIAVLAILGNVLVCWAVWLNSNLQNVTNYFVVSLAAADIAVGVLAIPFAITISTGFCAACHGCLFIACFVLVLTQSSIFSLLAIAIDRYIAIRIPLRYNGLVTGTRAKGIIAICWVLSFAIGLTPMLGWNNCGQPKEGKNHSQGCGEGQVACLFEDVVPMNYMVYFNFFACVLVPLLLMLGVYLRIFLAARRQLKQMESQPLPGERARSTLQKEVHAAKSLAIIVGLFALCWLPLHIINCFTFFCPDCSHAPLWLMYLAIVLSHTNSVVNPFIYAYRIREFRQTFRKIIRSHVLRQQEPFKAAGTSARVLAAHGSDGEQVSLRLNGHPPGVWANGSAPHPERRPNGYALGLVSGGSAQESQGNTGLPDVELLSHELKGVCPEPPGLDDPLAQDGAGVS
# T6 sequence (P25100 whole entry, species assumed): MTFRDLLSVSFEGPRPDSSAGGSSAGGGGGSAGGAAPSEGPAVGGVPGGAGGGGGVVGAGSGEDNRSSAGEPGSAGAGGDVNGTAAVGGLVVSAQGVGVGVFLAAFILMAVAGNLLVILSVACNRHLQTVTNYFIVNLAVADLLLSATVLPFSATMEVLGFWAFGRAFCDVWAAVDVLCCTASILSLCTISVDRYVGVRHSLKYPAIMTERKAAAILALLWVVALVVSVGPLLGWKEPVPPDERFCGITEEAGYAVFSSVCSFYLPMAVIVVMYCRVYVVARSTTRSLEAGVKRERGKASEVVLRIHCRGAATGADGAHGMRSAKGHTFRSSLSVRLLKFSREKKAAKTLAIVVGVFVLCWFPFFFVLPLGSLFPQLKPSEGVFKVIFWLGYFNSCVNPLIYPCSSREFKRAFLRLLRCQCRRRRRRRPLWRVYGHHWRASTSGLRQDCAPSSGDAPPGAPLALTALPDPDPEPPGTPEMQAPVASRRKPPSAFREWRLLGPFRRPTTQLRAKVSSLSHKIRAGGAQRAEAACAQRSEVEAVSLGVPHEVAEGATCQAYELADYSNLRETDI
compound,measurement,setting,value
C[C@H](NC(=O)c1c(Cc2ccc(F)cc2)sc2c1CCOC2)c1ccc(C(=O)O)cc1 [TP-16],IC50,BB1,> 10 µM
same,IC50,DRD2,> 10 µM
same,hepatocyte CLint,[1]; liver microsomes,5.91 µL/min/1e6 cells
same,half-life,"[1]; liver microsomes, read-out: In vitro T1/2",3.92 h
same,CLhep predicted,"[1]; liver microsomes, read-out: Predicted hepatic Clint",39.3 mL/min/kg
same,CLint scaled,"[1]; liver microsomes, read-out: Scale-up Clint",69.8 mL/min/kg
same,Remaining Percentages at 120 min,[1],70.6%
same,IC50,HTR1B,> 10 µM
same,IC50,other 25 GPCRs,> 10 µM
same,CLhep predicted,"[2]; human, read-out: Predicted hepatic Clint",< 4.69 mL/min/kg
same,hepatocyte CLint,[2]; human liver microsome,< 2.39 µL/min/1e6 cells
same,half-life,"[2]; human liver microsome, read-out: In vitro T1/2",> 9.68 h
same,CLint scaled,"[2]; human liver microsome, read-out: Scale-up Clint",< 6.07 mL/min/kg
same,PGE2-induced polarization of M2 macrophages,mouse bone marrow cells,significantly suppressed
same,IC50,ADRB2,> 10 µM
same,IC50,AVPR1A,> 10 µM
same,IC50,ADORA2A,> 10 µM
same,effect on cell viability,HT29,did not affect the viability
same,effect on cell viability,HCT116,did not affect the viability
same,effect on cell viability,HUVEC,did not affect the viability
same,effect on cell viability,HCT8,did not affect the viability
same,effect on cell viability,DLD1,did not affect the viability
same,IC50,DRD1,> 10 µM
same,IC50,ADRA1D,> 10 µM
same,IC50,AT1,> 10 µM
same,IC50,CHRM3,> 10 µM
same,%TGI,CT26-Luc tumors; CT26-Luc orthotopic model,76.22%
same,body weight of tumor-bearing mice,CT26-Luc tumors; at the given doses,no significant change
